{"source": "patent EP1020526B1", "about": "“Process for producing L-Threonine by fermentation” (priority 1992, dated 1994)", "key": {"GT3/pLYSC1": {"test_system": "GT3/pLYSC1", "assay": "Growth of completely AK-deficient GT3 strain possessing lysC plasmid on M9 minimal agar with added lysine or AEC", "type": "cell-based, E. coli", "settings": "for growth: M9 agar medium, 37°C, 2 day culturing; for MIC: Escherichia coli, GT3, M9 minimal agar plate medium, read-out: concentration at which growth was completely inhibited", "protocol": "(§1) First, pLYSC1 and pLYSC2 were each incorporated into E. coli GT3 for its transformation to obtain two different transformants, and culturing was effected on an M9 minimal agar plate medium containing lysine or AEC. Also, the growth inhibition concentration of lysine or AEC was determined, and the conditions for selection of lysC* were investigated."}, "GT3/pLYSC2": {"test_system": "GT3/pLYSC2", "assay": "Growth of completely AK-deficient GT3 strain possessing lysC plasmid on M9 minimal agar with added lysine or AEC", "type": "cell-based, E. coli", "settings": "M9 agar medium, 37°C, 2 day culturing", "protocol": "as §1"}, "[1]": {"target": "T1, Escherichia coli aspartokinase III (AK III, lysC), wild type, SEQ ID NO: 1 (Escherichia coli, UniProt P08660)", "T1 construct": "made in house; host or cells: E. coli GT3 (lacks AK I, II and III) carrying pLYSC1; cell-free extract, ammonium sulfate fraction", "T1 sequence (P08660 2-449)": "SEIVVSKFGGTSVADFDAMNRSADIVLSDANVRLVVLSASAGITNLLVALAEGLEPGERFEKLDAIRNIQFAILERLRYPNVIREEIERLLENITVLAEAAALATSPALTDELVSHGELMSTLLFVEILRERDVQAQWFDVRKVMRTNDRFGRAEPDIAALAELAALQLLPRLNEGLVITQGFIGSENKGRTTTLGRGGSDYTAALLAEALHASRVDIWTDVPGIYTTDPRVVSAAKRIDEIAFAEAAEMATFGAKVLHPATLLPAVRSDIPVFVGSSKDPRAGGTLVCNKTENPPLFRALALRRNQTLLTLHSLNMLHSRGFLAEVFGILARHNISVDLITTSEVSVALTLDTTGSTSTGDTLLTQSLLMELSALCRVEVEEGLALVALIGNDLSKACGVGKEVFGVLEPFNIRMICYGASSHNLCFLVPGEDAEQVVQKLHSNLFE", "assay": "Aspartokinase (AK III) activity, lysine-dependent inhibition, crude enzyme, hydroxamate method of Stadtman et al.", "type": "biochemical", "protocol": "(§2) A completely AK-deficient GT3 strain was used as the host in respect of which the above mentioned 14 mutant pLYSC1's (named the pLYSC1* series) and wild pLYSC1 plasmids were respectively used for transformation, after which a cell-free extract was prepared from the transformants and the enzyme activity of AK III was measured. The method for the measurement of the enzyme activity was as follows.\n(§3) • (1) Culturing of cells in 2 x TY medium, followed by cell collection at O.D. 660 nm = approx. 0.8. • (2) Washing with 0.02 M KH2PO4 (pH 6.75) - 0.03 M β mercaptoethanol at 0°C. • (3) Sonic crushing of cells (0°C, 100 W, 30 sec x 4 times). • (4) Centrifugation at 0°C, 33 krpm for 1 hour, followed by addition of ammonium sulfate to supernatant to 80% saturation. • (5) Centrifugation, followed by dissolution of pellets in buffer of (2), and preservation (-20°C).\n(§4) The method of measuring the enzyme activity was according to the method of Stadtman, et al. (Stadtman, E.R., Cohen, G.N., Lebras, G. and Robichon-Szulmajster, H., J. Biol. Chem., 236, 2033, 1961).\n(§5) Table 5: Reaction solution composition\n(§6) The measurement method is outlined in Table 6 below. Table 6: Outline of measurement method\n(§7) For the measurement of the enzyme activity of AK, lysine was added to the enzyme reaction solutions at various concentrations, and the levels of lysine-dependent inhibition were determined.\n(§8) In Table 7, the inhibition release is presented as the activity (%) in the presence of 100 mM of lysine with respect to the activity of a lysine-free reaction solution, and the thermal stability is presented as the maintenance of activity (%) after treatment at 55°C for 1.5 hours with respect to the activity without heating. Table 7: Inhibition release by lysine and thermal stability"}, "[2]": {"target": "T2, Escherichia coli aspartokinase III (AK III) mutant lysC* No. 117, 345 Ser→Leu (Escherichia coli, UniProt P08660, S345L)", "T2 construct": "made in house; host or cells: E. coli GT3 carrying mutant pLYSC1*; cell-free extract", "T2 sequence (P08660 2-449 S345L)": "as the sequence (P08660 2-449) above, with S344L counted along it", "assay": "Aspartokinase (AK III) activity, lysine-dependent inhibition", "type": "biochemical", "protocol": "as §2, §3, §4, §5, §6, §7, §8"}, "[3]": {"target": "T3, Escherichia coli aspartokinase III (AK III) mutant lysC* No. 149, 34 Arg→Cys, 323 Gly→Asp (Escherichia coli, UniProt P08660, G323D/R34C)", "T3 construct": "made in house; host or cells: E. coli GT3 carrying mutant pLYSC1*; cell-free extract", "T3 sequence (P08660 2-449 R34C/G323D)": "as the sequence (P08660 2-449) above, with R33C, G322D counted along it", "assay": "Aspartokinase (AK III) activity, lysine-dependent inhibition", "type": "biochemical", "settings": "activity in the presence of 100 mM of lysine with respect to lysine-free reaction solution", "protocol": "as §2, §3, §4, §5, §6, §7, §8"}, "[4]": {"target": "T4, Escherichia coli aspartokinase III (AK III) mutant lysC* No. 169, 352 Thr→Ile, 369 Ser→Phe (Escherichia coli, UniProt P08660, S369F/T352I)", "T4 construct": "made in house; host or cells: E. coli GT3 carrying mutant pLYSC1*; cell-free extract", "T4 sequence (P08660 2-449 T352I/S369F)": "as the sequence (P08660 2-449) above, with T351I, S368F counted along it", "assay": "Aspartokinase (AK III) activity, lysine-dependent inhibition", "type": "biochemical", "protocol": "as §2, §3, §4, §5, §6, §7, §8"}, "[5]": {"target": "T5, Escherichia coli aspartokinase III (AK III) mutant lysC* No. 172, 318 Met→Ile, 349 Val→Met (Escherichia coli, UniProt P08660, M318I/V349M)", "T5 construct": "made in house; host or cells: E. coli GT3 carrying mutant pLYSC1*; cell-free extract", "T5 sequence (P08660 2-449 M318I/V349M)": "as the sequence (P08660 2-449) above, with M317I, V348M counted along it", "assay": "Aspartokinase (AK III) activity, lysine-dependent inhibition", "type": "biochemical", "protocol": "as §2, §3, §4, §5, §6, §7, §8"}, "[6]": {"target": "T6, Escherichia coli aspartokinase III (AK III) mutant lysC* No. 24, 352 Thr→Ile (Escherichia coli, UniProt P08660, T352I)", "T6 construct": "made in house; host or cells: E. coli GT3 carrying mutant pLYSC1*; cell-free extract", "T6 sequence (P08660 2-449 T352I)": "as the sequence (P08660 2-449) above, with T351I counted along it", "assay": "Aspartokinase (AK III) activity, lysine-dependent inhibition", "type": "biochemical", "protocol": "as §2, §3, §4, §5, §6, §7, §8"}, "[7]": {"target": "T7, Escherichia coli aspartokinase III (AK III) mutant lysC* No. 80, 352 Thr→Ile (Escherichia coli, UniProt P08660, T352I)", "T7 construct": "made in house; host or cells: E. coli GT3 carrying mutant pLYSC1*; cell-free extract", "T7 sequence (P08660 2-449 T352I)": "as the sequence (P08660 2-449) above, with T351I counted along it", "assay": "Aspartokinase (AK III) activity, lysine-dependent inhibition", "type": "biochemical", "protocol": "as §2, §3, §4, §5, §6, §7, §8"}, "[8]": {"settings": "lysine, compared with wild type AK III"}}}
{"molecule": "NCCSC[C@H](N)C(=O)O", "note": "[AEC, S-2-aminoethylcysteine, reference compound]", "values": [{"measurement": "growth", "setting": "GT3/pLYSC1; 0.2 mM added", "result": "-"}, {"measurement": "growth", "setting": "GT3/pLYSC1; 0.4 mM added", "result": "-"}, {"measurement": "growth", "setting": "GT3/pLYSC1; 0.8 mM added", "result": "-"}, {"measurement": "growth", "setting": "GT3/pLYSC1; 1.5 mM added", "result": "-"}, {"measurement": "growth", "setting": "GT3/pLYSC1; 3 mM added", "result": "-"}, {"measurement": "growth", "setting": "GT3/pLYSC1; 6 mM added", "result": "-"}, {"measurement": "growth", "setting": "GT3/pLYSC1; 12 mM added", "result": "-"}, {"measurement": "growth", "setting": "GT3/pLYSC1; 25 mM added", "result": "-"}, {"measurement": "growth", "setting": "GT3/pLYSC1; 50 mM added", "result": "-"}, {"measurement": "MIC", "setting": "GT3/pLYSC1", "result": "~200", "unit": "µM"}, {"measurement": "growth", "setting": "GT3/pLYSC2; 0.2 mM added", "result": "±"}, {"measurement": "growth", "setting": "GT3/pLYSC2; 0.4 mM added", "result": "±"}, {"measurement": "growth", "setting": "GT3/pLYSC2; 0.8 mM added", "result": "±"}, {"measurement": "growth", "setting": "GT3/pLYSC2; 1.5 mM added", "result": "±"}, {"measurement": "growth", "setting": "GT3/pLYSC2; 3 mM added", "result": "±"}, {"measurement": "growth", "setting": "GT3/pLYSC2; 6 mM added", "result": "-"}, {"measurement": "growth", "setting": "GT3/pLYSC2; 12 mM added", "result": "-"}, {"measurement": "growth", "setting": "GT3/pLYSC2; 25 mM added", "result": "-"}, {"measurement": "growth", "setting": "GT3/pLYSC2; 50 mM added", "result": "-"}]}
{"molecule": "NCCCC[C@H](N)C(=O)O", "note": "[lysine]", "values": [{"measurement": "IC50", "setting": "[1]", "result": "~450", "unit": "µM"}, {"measurement": "inhibition at 5000 µM", "setting": "[1]; 5 mM of lysine", "result": "~100", "unit": "%"}, {"measurement": "activity at 100000 µM", "setting": "[1]; activity in the presence of 100 mM of lysine with respect to lysine-free reaction solution, read-out: Inhibition release (%)", "result": 0, "unit": "%"}, {"measurement": "inhibition", "setting": "[2]; 100 mM of lysine", "result": "practically no inhibition"}, {"measurement": "50% inhibition concentration (fold)", "setting": "[2]; [8]", "result": "≥ 200", "unit": "fold"}, {"measurement": "Inhibition release (%)", "setting": "[3]", "result": 59, "unit": "%"}, {"measurement": "inhibition", "setting": "[4]; 100 mM of lysine", "result": "practically no inhibition"}, {"measurement": "50% inhibition concentration (fold)", "setting": "[4]; [8]", "result": "≥ 200", "unit": "fold"}, {"measurement": "inhibition", "setting": "[5]; 100 mM of lysine", "result": "practically no inhibition"}, {"measurement": "50% inhibition concentration (fold)", "setting": "[5]; [8]", "result": "≥ 200", "unit": "fold"}, {"measurement": "inhibition", "setting": "[6]; 100 mM of lysine", "result": "practically no inhibition"}, {"measurement": "50% inhibition concentration (fold)", "setting": "[6]; [8]", "result": "≥ 200", "unit": "fold"}, {"measurement": "inhibition", "setting": "[7]; 100 mM of lysine", "result": "practically no inhibition"}, {"measurement": "50% inhibition concentration (fold)", "setting": "[7]; [8]", "result": "≥ 200", "unit": "fold"}, {"measurement": "growth", "setting": "GT3/pLYSC1; 0.2 mM added", "result": "-"}, {"measurement": "growth", "setting": "GT3/pLYSC1; 0.4 mM added", "result": "-"}, {"measurement": "growth", "setting": "GT3/pLYSC1; 0.8 mM added", "result": "-"}, {"measurement": "growth", "setting": "GT3/pLYSC1; 1.5 mM added", "result": "-"}, {"measurement": "growth", "setting": "GT3/pLYSC1; 3 mM added", "result": "-"}, {"measurement": "growth", "setting": "GT3/pLYSC1; 6 mM added", "result": "-"}, {"measurement": "growth", "setting": "GT3/pLYSC1; 12 mM added", "result": "-"}, {"measurement": "growth", "setting": "GT3/pLYSC1; 25 mM added", "result": "-"}, {"measurement": "growth", "setting": "GT3/pLYSC1; 50 mM added", "result": "-"}, {"measurement": "growth", "setting": "GT3/pLYSC1; 100 mM added", "result": "-"}, {"measurement": "growth", "setting": "GT3/pLYSC1; 200 mM added", "result": "-"}, {"measurement": "MIC", "setting": "GT3/pLYSC1", "result": "~200", "unit": "µM"}, {"measurement": "growth", "setting": "GT3/pLYSC2; 0.2 mM added", "result": "+"}, {"measurement": "growth", "setting": "GT3/pLYSC2; 0.4 mM added", "result": "+"}, {"measurement": "growth", "setting": "GT3/pLYSC2; 0.8 mM added", "result": "+"}, {"measurement": "growth", "setting": "GT3/pLYSC2; 1.5 mM added", "result": "+"}, {"measurement": "growth", "setting": "GT3/pLYSC2; 3 mM added", "result": "+"}, {"measurement": "growth", "setting": "GT3/pLYSC2; 6 mM added", "result": "+"}, {"measurement": "growth", "setting": "GT3/pLYSC2; 12 mM added", "result": "+"}, {"measurement": "growth", "setting": "GT3/pLYSC2; 25 mM added", "result": "+"}, {"measurement": "growth", "setting": "GT3/pLYSC2; 50 mM added", "result": "+"}, {"measurement": "growth", "setting": "GT3/pLYSC2; 100 mM added", "result": "±"}, {"measurement": "growth", "setting": "GT3/pLYSC2; 200 mM added", "result": "-"}]}
